Test results reported in patent US11566007B2, “Ras inhibitors” (Revolution Medicines, Inc., priority 2019, dated 2023).
Several values for one entry are separate records, joined by “and”; a condition that tells them apart may be missing. Equal entries are not always repeated. Where two headings read alike, the source gives them in different places.

Columns and labels:
[1] = tested on: NCI-H358 cells (K-Ras G12C); assay: Potency assay: pERK in NCI-H358 cells; format: cell-based, human; details: H358 KRAS G12C, read-out: pERK EC50
Procedure, shortened: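 Inhibition of cellular pERK after a 4 h treatment, detected by AlphaLISA or In-Cell Western. IC50 from a four-parameter concentration-response fit.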

NCI-H358 (K-Ras G12C) = assay: CellTiter-Glo cell viability assay, NCI-H358; format: cell-based, human; details: Homo sapiens, NCI-H358, 120 h, NCI-H358, 5-day treatment; class symbols; read-out: Additional H358 Cell Viability assay data (K-Ras G12C, IC50)
Procedure, shortened: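 Compounds were dispensed directly onto K-Ras mutant cells and incubated until day 5, then plates were equilibrated to room temperature for about 30 minutes before CellTiter-Glo luminescence. Signals were normalized as (sample/average DMSO)*100 and fitted by four-parameter logistic fit.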

K-Ras G12C = K-Ras G12C (Homo sapiens (Human), UniProt P01116+P62937, G12C); assay: Ras-Raf (BRAF RBD) disruption / FRET / MOA assay, KRAS G12C; format: biochemical; details: KRAS G12C; Ras-Raf disruption/FRET/MOA assay; read-out: IC50* KRAS G12C FRET data
Procedure, shortened: (§1)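 Compounds, top final concentration 30 μM in 10-point 3-fold series, incubated 3 hours at 25° C with nucleotide-loaded Ras, cyclophilin A and BRAF RBD.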

K-Ras G13C = K-Ras G13C (Homo sapiens (Human), UniProt P01116+P62937, G13C); assay: Ras-Raf (BRAF RBD) disruption / FRET / MOA assay, KRAS G13C; format: biochemical; details: KRAS G13C; Ras-Raf disruption/FRET/MOA assay; read-out: IC50* KRAS G13C FRET data
Procedure, shortened: as §1

KRAS G12S = KRAS G12S (Homo sapiens (Human), UniProt P01116+P62937, G12S); assay: Ras-Raf (BRAF RBD) disruption / FRET / MOA assay, KRAS G12S; format: biochemical; details: Ras-Raf disruption/FRET/MOA assay; class symbols; read-out: KRAS G12S FRET data IC50
Procedure, shortened: as §1

KRAS G12D = KRAS G12D (Homo sapiens (Human), UniProt P01116+P62937, G12D); assay: Ras-Raf (BRAF RBD) disruption / FRET / MOA assay, KRAS G12D; format: biochemical; details: Ras-Raf disruption/FRET/MOA assay; class symbols; read-out: KRAS G12D FRET data IC50
Procedure, shortened: as §1

KRAS G12V = KRAS G12V (Homo sapiens (Human), UniProt P01116+P62937, G12V); assay: Ras-Raf (BRAF RBD) disruption / FRET / MOA assay, KRAS G12V; format: biochemical; details: read-out: IC50* KRAS G12V FRET data
Procedure, shortened: as §1

KRAS WT = KRAS WT (Homo sapiens (Human), UniProt P01116+P62937); assay: Ras-Raf (BRAF RBD) disruption / FRET / MOA assay, KRAS WT; format: biochemical; details: read-out: IC50* KRAS WT FRET data
Procedure, shortened: as §1

KRAS G13D = KRAS G13D (Homo sapiens (Human), UniProt P01116+P62937, G13D); assay: Ras-Raf (BRAF RBD) disruption / FRET / MOA assay, KRAS G13D; format: biochemical; details: read-out: IC50* KRAS G13D FRET data
Procedure, shortened: as §1

NRAS G12C = NRAS G12C (Homo sapiens (Human), UniProt P01111+P62937, G12C); assay: Ras-Raf (BRAF RBD) disruption / FRET / MOA assay, NRAS G12C; format: biochemical; details: read-out: IC50* NRAS G12C FRET data
Procedure, shortened: as §1

NRAS G12C, sequence (P01111 whole entry G12C): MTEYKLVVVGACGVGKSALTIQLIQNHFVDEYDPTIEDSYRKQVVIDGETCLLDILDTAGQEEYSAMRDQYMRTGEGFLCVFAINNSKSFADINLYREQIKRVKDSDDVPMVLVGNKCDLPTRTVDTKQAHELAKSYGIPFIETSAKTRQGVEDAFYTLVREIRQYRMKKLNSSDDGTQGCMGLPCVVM
NRAS G12C, sequence (P62937 whole entry): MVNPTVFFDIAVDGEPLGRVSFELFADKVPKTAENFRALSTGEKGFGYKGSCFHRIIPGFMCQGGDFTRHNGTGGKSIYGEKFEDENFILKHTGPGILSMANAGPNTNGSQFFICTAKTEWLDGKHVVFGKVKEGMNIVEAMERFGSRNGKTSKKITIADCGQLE
K-Ras G13C, sequence (P01116-2 other isoform, or with tags, fused parts or gaps G13C): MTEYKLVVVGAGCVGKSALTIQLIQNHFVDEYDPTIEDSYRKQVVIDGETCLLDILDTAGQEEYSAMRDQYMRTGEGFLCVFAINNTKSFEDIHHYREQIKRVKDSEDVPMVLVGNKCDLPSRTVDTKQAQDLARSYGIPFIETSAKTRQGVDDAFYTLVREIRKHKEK
K-Ras G13C, sequence (P62937 whole entry): as the sequence (P62937 whole entry) above
KRAS G12D, sequence (P01116-2 other isoform, or with tags, fused parts or gaps G12D): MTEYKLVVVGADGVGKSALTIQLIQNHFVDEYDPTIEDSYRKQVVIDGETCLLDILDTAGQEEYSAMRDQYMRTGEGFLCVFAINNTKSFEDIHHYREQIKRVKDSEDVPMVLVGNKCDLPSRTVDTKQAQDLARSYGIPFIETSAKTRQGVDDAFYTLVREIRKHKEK
KRAS G12D, sequence (P62937 whole entry): as the sequence (P62937 whole entry) above
KRAS G12V, sequence (P01116-2 other isoform, or with tags, fused parts or gaps G12V): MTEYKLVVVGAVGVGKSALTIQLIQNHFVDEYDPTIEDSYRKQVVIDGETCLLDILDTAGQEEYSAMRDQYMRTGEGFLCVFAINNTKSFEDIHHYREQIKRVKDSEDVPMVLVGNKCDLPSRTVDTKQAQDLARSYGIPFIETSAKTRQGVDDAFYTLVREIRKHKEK
KRAS G12V, sequence (P62937 whole entry): as the sequence (P62937 whole entry) above
KRAS WT, sequence (P01116-2 other isoform, or with tags, fused parts or gaps): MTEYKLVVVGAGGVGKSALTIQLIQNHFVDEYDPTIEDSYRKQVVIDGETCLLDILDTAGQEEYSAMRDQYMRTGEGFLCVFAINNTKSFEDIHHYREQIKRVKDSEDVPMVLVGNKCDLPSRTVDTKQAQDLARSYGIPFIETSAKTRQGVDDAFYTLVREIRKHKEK
KRAS WT, sequence (P62937 whole entry): as the sequence (P62937 whole entry) above
KRAS G13D, sequence (P01116-2 other isoform, or with tags, fused parts or gaps G13D): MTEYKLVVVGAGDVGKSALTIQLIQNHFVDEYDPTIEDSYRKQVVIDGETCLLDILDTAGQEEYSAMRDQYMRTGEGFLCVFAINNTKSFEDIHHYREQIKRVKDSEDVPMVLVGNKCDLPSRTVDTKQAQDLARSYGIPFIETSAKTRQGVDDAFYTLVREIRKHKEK
KRAS G13D, sequence (P62937 whole entry): as the sequence (P62937 whole entry) above
KRAS G12S, sequence (P01116-2 other isoform, or with tags, fused parts or gaps G12S): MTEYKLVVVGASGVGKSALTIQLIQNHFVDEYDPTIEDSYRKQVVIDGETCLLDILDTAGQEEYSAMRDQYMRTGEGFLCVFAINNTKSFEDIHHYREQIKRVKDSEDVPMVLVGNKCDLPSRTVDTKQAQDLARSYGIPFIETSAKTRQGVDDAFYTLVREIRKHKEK
KRAS G12S, sequence (P62937 whole entry): as the sequence (P62937 whole entry) above
K-Ras G12C, sequence (P01116-2 other isoform, or with tags, fused parts or gaps G12C): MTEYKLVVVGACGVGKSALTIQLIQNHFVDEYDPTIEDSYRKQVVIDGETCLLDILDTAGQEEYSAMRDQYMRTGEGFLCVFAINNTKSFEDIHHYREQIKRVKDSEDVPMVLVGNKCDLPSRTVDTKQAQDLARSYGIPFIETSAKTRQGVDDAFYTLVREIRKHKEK
K-Ras G12C, sequence (P62937 whole entry): as the sequence (P62937 whole entry) above

SMILES | EC50 ([1]; Homo sapiens, NCI-H358) | IC50 (NCI-H358 (K-Ras G12C)) | IC50 (K-Ras G12C) | IC50 (K-Ras G13C) | IC50 (KRAS G12S) | IC50 (KRAS G12D) | IC50 (KRAS G12V) | IC50 (KRAS WT) | IC50 (KRAS G13D) | IC50 (NRAS G12C) | EC50 [1]
C=CC(=O)Nc1ccc(C(=O)N(C)[C@H](C(=O)N[C@H]2Cc3cc(O)cc(c3)-c3ccc4c(c3)c(c(-c3cccnc3[C@H](C)OC)n4CC)CC(C)(C)COC(=O)[C@@H]3CCCN(N3)C2=O)C(C)C)cn1 (atropisomer, axis not shown) [Example A250] | < 5000 nM | 10 to 100 nM | 10 to 100 nM | 10 to 100 nM and < 10 nM | 100 to 1000 nM and 1000 to 10000 nM | 1000 to 10000 nM and > 10000 nM | 100 to 1000 nM and > 10000 nM | 100 to 1000 nM and 1000 to 10000 nM | 100 to 1000 nM and > 10000 nM | 10 to 100 nM and < 10 nM | –
CCn1c(-c2cccnc2[C@H](C)OC)c2c3cc(ccc31)-c1cc(O)cc(c1)C[C@H](NC(=O)[C@H](C(C)C)N(C)C(=O)c1ncc(NC(=O)/C=C/CN(C)C)s1)C(=O)N1CCC[C@H](N1)C(=O)OCC(C)(C)C2 (atropisomer, axis not shown) [Example A253] | < 5000 nM | 100 to 1000 nM | 10 to 100 nM | < 10 nM | 1000 to 10000 nM | 1000 to 10000 nM | 100 to 1000 nM | 100 to 1000 nM | 100 to 1000 nM | 100 to 1000 nM | –
C=CC(=O)Nc1cnc(C(=O)N(C)[C@H](C(=O)N[C@H]2Cc3cc(O)cc(c3)-c3ccc4c(c3)c(c(-c3cccnc3[C@H](C)OC)n4CC)CC(C)(C)COC(=O)[C@@H]3CCCN(N3)C2=O)C(C)C)s1 (atropisomer, axis not shown) [Example A254] | < 5000 nM | 100 to 1000 nM | 100 to 1000 nM | 10 to 100 nM | 1000 to 10000 nM | 1000 to 10000 nM | 1000 to 10000 nM | 100 to 1000 nM | 1000 to 10000 nM | 100 to 1000 nM | –
C=CC(=O)Nc1cnc(C(=O)N(C)[C@H](C(=O)N[C@H]2Cc3cc(O)cc(c3)-c3ccc4c(c3)c(c(-c3cccnc3[C@H](C)OC)n4CC)CC(C)(C)COC(=O)[C@@H]3CCCN(N3)C2=O)C(C)C)n1C (atropisomer, axis not shown) [Example A255] | – | < 10 nM | < 10 nM | < 10 nM | 10 to 100 nM | 100 to 1000 nM | 100 to 1000 nM | 100 to 1000 nM | 100 to 1000 nM | < 10 nM | < 5000 nM
C=CC(=O)N1CC(C(=O)N(C)[C@H](C(=O)N[C@H]2Cc3cc(O)cc(c3)-c3ccc4c(c3)c(c(-c3cccnc3[C@H](C)OC)n4CC)CC(C)(C)COC(=O)[C@@H]3CCCN(N3)C2=O)C(C)C)C1 (atropisomer, axis not shown) [Example A256] | < 5000 nM | < 10 nM | < 10 nM | 10 to 100 nM | 10 to 100 nM | 100 to 1000 nM | 100 to 1000 nM | 10 to 100 nM | 100 to 1000 nM | 10 to 100 nM | –
CCn1c(-c2cccnc2[C@H](C)OC)c2c3cc(ccc31)-c1cc(O)cc(c1)C[C@H](NC(=O)[C@H](C(C)C)N(C)C(=O)C1CN(C(=O)/C=C/CN(C)C)C1)C(=O)N1CCC[C@H](N1)C(=O)OCC(C)(C)C2 (atropisomer, axis not shown) [Example A257] | < 5000 nM | 10 to 100 nM | < 10 nM | 10 to 100 nM | 100 to 1000 nM | 100 to 1000 nM | 100 to 1000 nM | 100 to 1000 nM | 100 to 1000 nM | < 10 nM | –
C=CC(=O)Nc1csc(C(=O)N(C)[C@H](C(=O)N[C@H]2Cc3cc(O)cc(c3)-c3ccc4c(c3)c(c(-c3cccnc3[C@H](C)OC)n4CC)CC(C)(C)COC(=O)[C@@H]3CCCN(N3)C2=O)C(C)C)n1 (atropisomer, axis not shown) [Example A259] | < 5000 nM | 100 to 1000 nM | 100 to 1000 nM | 10 to 100 nM | 1000 to 10000 nM | > 10000 nM | 1000 to 10000 nM | 100 to 1000 nM | 1000 to 10000 nM | 100 to 1000 nM | –
C=CC(=O)N1CCC(C(=O)N(C)[C@H](C(=O)N[C@H]2Cc3cc(O)cc(c3)-c3ccc4c(c3)c(c(-c3cccnc3[C@H](C)OC)n4CC)CC(C)(C)COC(=O)[C@@H]3CCCN(N3)C2=O)C(C)C)CC1 (atropisomer, axis not shown) [Example A260] | < 5000 nM | < 10 nM | 10 to 100 nM | 10 to 100 nM | 10 to 100 nM | 100 to 1000 nM | 100 to 1000 nM | 10 to 100 nM | 10 to 100 nM | 10 to 100 nM | –
